The source of these data is patent US20060199816A1, “Aryl sulfonyl piperidines” (priority 2005, published 2006).

This assay concerns the target human HSD1 (Homo sapiens, UniProt P28845). Put plainly: in vitro inhibition of 11β-HSD1 (cortisone to cortisol conversion, time-resolved fluorescence). The assay is classed as biochemical. Conditions: purified human HSD1, cortisone substrate, NADPH, 30 min incubation, time-resolved fluorescence readout; read-out: hHSD1 IC50. The protocol: Purified human HSD1 was diluted in 50 mM Tris-HCl, 100 mM NaCl, 0.1 mg/ml BSA, 0.02% Lubrol, 20 mM MgCl2, 10 mM glucose 6-phosphate, 0.4 mM NADPH, 60 U/ml glucose 6-phosphate dehydrogenase to a concentration of 1.5 ug/ml (Enzyme Solution). Cortisone (100 uM) in DMSO was diluted to 1 uM with 50 mM Tris-HCl, 100 mM NaCl (Substrate Solution). Testing compounds (40 uM) in DMSO was diluted 3 fold in series in DMSO and further diluted 20 fold in Substrate Solution. Enzyme Solution (10 ul/well) was added into 384 well microtiter plates followed by diluted compound solutions (10 ul/well) and mixed well. Samples were then incubated at […] for 30 min. EDTA/biotin-cortisol solution (10 ul/well) in 28 mM EDTA, 100 nM biotin-cortisol, 50 mM Tris-HCl, 100 mM NaCl was then added followed by 5 ul/well of anti-cortisol antibody (3.2 ug/ml) in 50 mM Tris-HCl, 100 mM NaCl, 0.1 mg/ml BSA and the solution was incubated at 37 degrees for 30 min. Five ul per well of Eu-conjugated anti-mouse IgG (16 nM) and APC-conjugated streptavidin (160 nM) in 50 mM Tris-HCl, 100 mM NaCl, 0.1 mg/ml BSA was added and the solution was incubated at room temperature for 2 hours. Signals were quantitated by reading time-resolved fluorescence on a Victor 5 reader (Wallac).
Percent inhibition of HSD1 activity by an agent at various concentrations was calculated by the formula % Inhibition=100*[1−(Fs−Fb)/(Ft−Fb)], where: • Fs is the fluorescence signal of the sample which included the agent, • Fb is the fluorescence signal in the absence of HSD1 and agent, • Ft is the fluorescence signal in the presence of HSD1, but no agent.
The inhibitory activities of test compounds were determined by the IC50s, or the concentration of compound that gave 50% inhibition.

Broadly, the IC50 is the midpoint of a concentration-inhibition curve.

SMILES strings stand for the structures.

Chain of human HSD1 (P28845 whole entry): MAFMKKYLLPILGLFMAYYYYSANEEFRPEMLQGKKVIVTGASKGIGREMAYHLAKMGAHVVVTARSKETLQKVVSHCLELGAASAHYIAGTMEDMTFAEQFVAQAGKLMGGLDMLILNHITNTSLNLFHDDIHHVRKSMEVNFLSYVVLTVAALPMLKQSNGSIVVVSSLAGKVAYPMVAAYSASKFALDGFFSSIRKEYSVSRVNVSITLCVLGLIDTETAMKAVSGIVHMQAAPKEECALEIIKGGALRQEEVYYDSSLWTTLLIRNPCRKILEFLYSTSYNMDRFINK

On to `CC(C)CCNC(=O)[C@@H]1CCCN(S(=O)(=O)c2ccccc2Cl)C1` [Example 2, (3R)-1-(2-Chloro-benzenesulfonyl)-piperidine-3-carboxylic acid (3-methyl-butyl)-amide], for which the IC50 was 290 nM.

Turning to `O=C(NCc1cccc2ccccc12)C1CCCN(S(=O)(=O)c2ccccc2Cl)C1` (stereo not drawn) [Example 43, 1-(2-Chloro-benzenesulfonyl)-piperidine-3-carboxylic acid (naphthalen-1-ylmethyl)-amide], the IC50 stood at 25 nM.

Regarding `CC(CNC(=O)C1CCCN(S(=O)(=O)c2ccccc2Cl)C1)c1ccccc1` (stereo not drawn) [Example 50], the IC50 was found to be 31 nM.

For `O=C(NC1CCCCC1)C1CCCN(S(=O)(=O)c2ccc3ccccc3c2)C1` (stereo not drawn) [Example 73, 1-(Naphthalene-2-sulfonyl)-piperidine-3-carboxylic acid cyclohexylamide], the IC50 came out at 47 nM.

Take `Cc1c(Cl)cccc1S(=O)(=O)N1CCCC(C(=O)NCCCc2ccccc2)C1` (stereo not drawn) [Example 80, 1-(3-Chloro-2-methyl-benzenesulfonyl)-piperidine-3-carboxylic acid (3-phenyl-propyl)-amide]: the half-inhibitory concentration (IC50) came to 12000 nM.

Consider `Cc1ccccc1CNC(=O)C1CCCN(S(=O)(=O)c2ccc(F)cc2)C1` (stereo not drawn) [Example 128, 1-(4-Fluoro-benzenesulfonyl)-piperidine-3-carboxylic acid 2-methyl-benzylamide], for which the IC50 came to 3000 nM.

For the compound `CC(C)c1ccc(S(=O)(=O)N2CCCC(C(=O)NC3CCCCC3)C2)cc1` (stereo not drawn) [Example 135, 1-(4-Isopropyl-benzenesulfonyl)-piperidine-3-carboxylic acid cyclohexylamide], the IC50 turned out to be 390 nM.

With `O=C(NCCc1cccc(Cl)c1)C1CCCN(S(=O)(=O)c2cccc3cccnc23)C1` (stereo not drawn) [Example 157, 1-(Quinoline-8-sulfonyl)-piperidine-3-carboxylic acid [2-(3-chloro-phenyl)-ethyl]-amide], the IC50 is 910 nM.

With `O=C(NC1CCc2ccccc21)C1CCCN(S(=O)(=O)c2ccccc2)C1` (stereo not drawn) [Example 169, 1-Benzenesulfonyl-piperidine-3-carboxylic acid indan-1-ylamide], the IC50 was found to be 390 nM.

With `CCC(COC)NC(=O)C1CCCN(S(=O)(=O)c2ccccc2)C1` (stereo not drawn) [Example 173, 1-Benzenesulfonyl-piperidine-3-carboxylic acid (1-methoxymethyl-propyl)-amide], the IC50 amounted to 940 nM.

In the case of `Cc1ccccc1CNC(=O)C1CCCN(S(=O)(=O)c2ccccc2)C1` (stereo not drawn) [Example 175, 1-Benzenesulfonyl-piperidine-3-carboxylic acid 2-methyl-benzylamide], the half-maximal inhibitory concentration (IC50) came out at 3000 nM.

In the case of `O=C(NC1CCCc2ccccc21)C1CCCN(S(=O)(=O)c2cccs2)C1` (stereo not drawn) [Example 187, 1-(Thiophene-2-sulfonyl)-piperidine-3-carboxylic acid (1,2,3,4-tetrahydro-naphthalen-1-yl)-amide], the IC50 was determined as 190 nM.
